Assay results reported in the NIST ThermoML archive (doi:10.1021/je0497294).
Where “and” joins values, the source holds several entries; their conditions need not be identical. Equal entries are not always repeated. Numbers after ± are expanded uncertainties.

Assays:
[1] = 298.15 K; for surface tension liquid-gas: Pendant drop shape; for mass density: 101.33 kPa, Liquid
[2] = xn = mol fraction of the nth substance listed; conditions: 298.15 K, Pendant drop shape

Compound: Cc1ccc(C)c(C)c1 [1,2,4-trimethylbenzene]
- surface tension liquid-gas [1]: 29.25 ± 0.33 mN/m
- mass density [1]: 871.64 ± 0.41 kg/m3

Compound: Cc1ccc(C)c(C)c1 [1,2,4-trimethylbenzene] + C1CCOC1
- surface tension liquid-gas ([2]; x2 = 0): 29.25 ± 0.33 mN/m
- surface tension liquid-gas ([2]; x2 = 0.0988): 29.11 ± 0.32 mN/m
- surface tension liquid-gas ([2]; x2 = 0.2018): 29 ± 0.32 mN/m
- surface tension liquid-gas ([2]; x2 = 0.3003): 28.88 ± 0.31 mN/m
- surface tension liquid-gas ([2]; x2 = 0.3995): 28.73 ± 0.31 mN/m
- surface tension liquid-gas ([2]; x2 = 0.5002): 28.53 ± 0.3 mN/m
- surface tension liquid-gas ([2]; x2 = 0.6005): 28.29 ± 0.3 mN/m
- surface tension liquid-gas ([2]; x2 = 0.6986): 28.01 ± 0.3 mN/m
- surface tension liquid-gas ([2]; x2 = 0.7996): 27.68 ± 0.29 mN/m
- surface tension liquid-gas ([2]; x2 = 0.9006): 27.34 ± 0.29 mN/m

Compound: Cc1ccc(C)c(C)c1 [1,2,4-trimethylbenzene] + C[S+](C)[O-]
- surface tension liquid-gas ([2]; x2 = 0): 29.25 ± 0.33 mN/m
- surface tension liquid-gas ([2]; x2 = 0.1007): 28.48 ± 0.32 mN/m
- surface tension liquid-gas ([2]; x2 = 0.2007): 28.77 ± 0.32 mN/m
- surface tension liquid-gas ([2]; x2 = 0.3007): 28.81 ± 0.32 mN/m
- surface tension liquid-gas ([2]; x2 = 0.3995): 29.1 ± 0.32 mN/m
- surface tension liquid-gas ([2]; x2 = 0.501): 29.46 ± 0.32 mN/m
- surface tension liquid-gas ([2]; x2 = 0.6012): 29.34 ± 0.32 mN/m
- surface tension liquid-gas ([2]; x2 = 0.6992): 29.35 ± 0.32 mN/m
- surface tension liquid-gas ([2]; x2 = 0.7992): 30.04 ± 0.33 mN/m
- surface tension liquid-gas ([2]; x2 = 0.9013): 35.71 ± 0.38 mN/m

Compound: Cc1ccc(C)c(C)c1 [1,2,4-trimethylbenzene] + ClC(Cl)(Cl)Cl
- surface tension liquid-gas ([2]; x2 = 0): 29.25 ± 0.33 mN/m
- surface tension liquid-gas ([2]; x2 = 0.0496): 29.13 ± 0.32 mN/m
- surface tension liquid-gas ([2]; x2 = 0.0996): 29.04 ± 0.32 mN/m
- surface tension liquid-gas ([2]; x2 = 0.1986): 28.89 ± 0.32 mN/m
- surface tension liquid-gas ([2]; x2 = 0.3001): 28.72 ± 0.32 mN/m
- surface tension liquid-gas ([2]; x2 = 0.4006): 28.5 ± 0.31 mN/m
- surface tension liquid-gas ([2]; x2 = 0.5987): 28.24 ± 0.31 mN/m
- surface tension liquid-gas ([2]; x2 = 0.6986): 27.89 ± 0.3 mN/m
- surface tension liquid-gas ([2]; x2 = 0.7985): 27.54 ± 0.3 mN/m
- surface tension liquid-gas ([2]; x2 = 0.9011): 27.13 ± 0.29 mN/m

Compound: Cc1cc(C)cc(C)c1 [1,3,5-trimethylbenzene]
- surface tension liquid-gas [1]: 28.09 ± 0.31 mN/m and 26.76 ± 0.3 mN/m
- mass density [1]: 861.03 ± 0.38 kg/m3

Compound: Cc1cc(C)cc(C)c1 [1,3,5-trimethylbenzene] + C1CCOC1
- surface tension liquid-gas ([2]; x2 = 0): 28.09 ± 0.31 mN/m
- surface tension liquid-gas ([2]; x2 = 0.0481): 27.88 ± 0.31 mN/m
- surface tension liquid-gas ([2]; x2 = 0.2021): 27.72 ± 0.3 mN/m
- surface tension liquid-gas ([2]; x2 = 0.3002): 27.57 ± 0.3 mN/m
- surface tension liquid-gas ([2]; x2 = 0.4): 27.44 ± 0.3 mN/m
- surface tension liquid-gas ([2]; x2 = 0.5004): 27.32 ± 0.29 mN/m
- surface tension liquid-gas ([2]; x2 = 0.601): 27.23 ± 0.29 mN/m
- surface tension liquid-gas ([2]; x2 = 0.7003): 27.15 ± 0.29 mN/m
- surface tension liquid-gas ([2]; x2 = 0.7989): 27.09 ± 0.29 mN/m
- surface tension liquid-gas ([2]; x2 = 0.9): 27.06 ± 0.29 mN/m

Compound: Cc1cc(C)cc(C)c1 [1,3,5-trimethylbenzene] + C[S+](C)[O-]
- surface tension liquid-gas ([2]; x2 = 0): 28.09 ± 0.31 mN/m
- surface tension liquid-gas ([2]; x2 = 0.1023): 27.3 ± 0.3 mN/m
- surface tension liquid-gas ([2]; x2 = 0.1987): 26.92 ± 0.3 mN/m
- surface tension liquid-gas ([2]; x2 = 0.3027): 26.7 ± 0.3 mN/m
- surface tension liquid-gas ([2]; x2 = 0.401): 27.41 ± 0.3 mN/m
- surface tension liquid-gas ([2]; x2 = 0.4999): 28.4 ± 0.31 mN/m
- surface tension liquid-gas ([2]; x2 = 0.6003): 30.09 ± 0.33 mN/m
- surface tension liquid-gas ([2]; x2 = 0.699): 32.05 ± 0.34 mN/m
- surface tension liquid-gas ([2]; x2 = 0.8003): 34.77 ± 0.37 mN/m
- surface tension liquid-gas ([2]; x2 = 0.8998): 37.92 ± 0.39 mN/m

Compound: Cc1cc(C)cc(C)c1 [1,3,5-trimethylbenzene] + ClC(Cl)(Cl)Cl
- surface tension liquid-gas ([2]; x1 = 1): 26.76 ± 0.3 mN/m

Compound: C[S+](C)[O-] [dimethyl sulfoxide]
- surface tension liquid-gas [1]: 42.09 ± 0.43 mN/m
- mass density [1]: 1095.54 ± 0.42 kg/m3

Compound: C[S+](C)[O-] [dimethyl sulfoxide] + Cc1cc(C)cc(C)c1
- surface tension liquid-gas ([2]; x1 = 1): 42.09 ± 0.43 mN/m

Compound: C[S+](C)[O-] [dimethyl sulfoxide] + Cc1ccc(C)c(C)c1
- surface tension liquid-gas ([2]; x1 = 1): 42.09 ± 0.43 mN/m

Compound: ClC(Cl)(Cl)Cl [tetrachloromethane]
- surface tension liquid-gas [1]: 27.76 ± 0.3 mN/m and 26.76 ± 0.29 mN/m and 28.09 ± 0.3 mN/m
- mass density [1]: 1583.8 ± 0.76 kg/m3

Compound: ClC(Cl)(Cl)Cl [tetrachloromethane] + Cc1cc(C)cc(C)c1
- surface tension liquid-gas ([2]; x2 = 0): 28.09 ± 0.3 mN/m
- surface tension liquid-gas ([2]; x2 = 0.1009): 27.77 ± 0.3 mN/m
- surface tension liquid-gas ([2]; x2 = 0.2014): 27.53 ± 0.3 mN/m
- surface tension liquid-gas ([2]; x2 = 0.2994): 27.29 ± 0.3 mN/m
- surface tension liquid-gas ([2]; x2 = 0.4007): 27.1 ± 0.3 mN/m
- surface tension liquid-gas ([2]; x2 = 0.4998): 26.99 ± 0.3 mN/m
- surface tension liquid-gas ([2]; x2 = 0.5995): 26.91 ± 0.3 mN/m
- surface tension liquid-gas ([2]; x2 = 0.6988): 26.86 ± 0.3 mN/m
- surface tension liquid-gas ([2]; x2 = 0.797): 26.83 ± 0.3 mN/m
- surface tension liquid-gas ([2]; x2 = 0.9012): 26.81 ± 0.3 mN/m

Compound: ClC(Cl)(Cl)Cl [tetrachloromethane] + Cc1ccc(C)c(C)c1
- surface tension liquid-gas ([2]; x1 = 1): 26.76 ± 0.29 mN/m

Compound: C1CCOC1 [tetrahydrofuran]
- surface tension liquid-gas [1]: 27.04 ± 0.29 mN/m
- mass density [1]: 882.06 ± 0.21 kg/m3

Compound: C1CCOC1 [tetrahydrofuran] + Cc1cc(C)cc(C)c1
- surface tension liquid-gas ([2]; x1 = 1): 27.04 ± 0.29 mN/m

Compound: C1CCOC1 [tetrahydrofuran] + Cc1ccc(C)c(C)c1
- surface tension liquid-gas ([2]; x1 = 1): 27.04 ± 0.29 mN/m
